Reference: ChEMBL document CHEMBL1150375, “Novel inhibitors of the v-raf murine sarcoma viral oncogene homologue B1 (BRAF) based on a 2,6-disubstituted pyrazine scaffold” (J Med Chem, 2008)

Legend:
[1] = biological target: Serine/threonine-protein kinase B-raf (Homo sapiens, UniProt P15056, V600E)
Description: Inhibition of human BRAF V600E mutant expressed in SF9 cells

[2] = Selectivity ratio of IC50 for CRAF to IC50 for human BRAF V600E mutant
[3] = biological target: RAF proto-oncogene serine/threonine-protein kinase (Homo sapiens, UniProt P04049); assay: Inhibition of CRAF
RAF proto-oncogene serine/threonine-protein kinase, sequence (P04049 whole entry): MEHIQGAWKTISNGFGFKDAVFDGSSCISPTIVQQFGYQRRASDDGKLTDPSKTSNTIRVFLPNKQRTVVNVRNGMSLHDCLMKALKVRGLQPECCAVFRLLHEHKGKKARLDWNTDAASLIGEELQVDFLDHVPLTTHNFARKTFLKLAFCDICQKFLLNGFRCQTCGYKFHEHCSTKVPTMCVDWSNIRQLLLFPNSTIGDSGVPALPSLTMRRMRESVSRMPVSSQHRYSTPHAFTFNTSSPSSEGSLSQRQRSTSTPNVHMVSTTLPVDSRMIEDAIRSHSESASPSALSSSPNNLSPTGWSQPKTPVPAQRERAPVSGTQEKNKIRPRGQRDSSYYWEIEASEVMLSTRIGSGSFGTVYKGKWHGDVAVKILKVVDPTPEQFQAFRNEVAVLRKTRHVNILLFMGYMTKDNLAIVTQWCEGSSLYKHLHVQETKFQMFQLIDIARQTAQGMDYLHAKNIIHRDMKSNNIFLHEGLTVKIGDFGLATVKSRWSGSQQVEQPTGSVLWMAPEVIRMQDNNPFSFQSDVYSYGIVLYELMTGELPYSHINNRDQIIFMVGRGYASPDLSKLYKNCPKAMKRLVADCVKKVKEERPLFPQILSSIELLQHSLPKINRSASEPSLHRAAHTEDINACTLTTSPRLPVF

Serine/threonine-protein kinase B-raf, sequence (P15056 2-766 V600E limits assumed): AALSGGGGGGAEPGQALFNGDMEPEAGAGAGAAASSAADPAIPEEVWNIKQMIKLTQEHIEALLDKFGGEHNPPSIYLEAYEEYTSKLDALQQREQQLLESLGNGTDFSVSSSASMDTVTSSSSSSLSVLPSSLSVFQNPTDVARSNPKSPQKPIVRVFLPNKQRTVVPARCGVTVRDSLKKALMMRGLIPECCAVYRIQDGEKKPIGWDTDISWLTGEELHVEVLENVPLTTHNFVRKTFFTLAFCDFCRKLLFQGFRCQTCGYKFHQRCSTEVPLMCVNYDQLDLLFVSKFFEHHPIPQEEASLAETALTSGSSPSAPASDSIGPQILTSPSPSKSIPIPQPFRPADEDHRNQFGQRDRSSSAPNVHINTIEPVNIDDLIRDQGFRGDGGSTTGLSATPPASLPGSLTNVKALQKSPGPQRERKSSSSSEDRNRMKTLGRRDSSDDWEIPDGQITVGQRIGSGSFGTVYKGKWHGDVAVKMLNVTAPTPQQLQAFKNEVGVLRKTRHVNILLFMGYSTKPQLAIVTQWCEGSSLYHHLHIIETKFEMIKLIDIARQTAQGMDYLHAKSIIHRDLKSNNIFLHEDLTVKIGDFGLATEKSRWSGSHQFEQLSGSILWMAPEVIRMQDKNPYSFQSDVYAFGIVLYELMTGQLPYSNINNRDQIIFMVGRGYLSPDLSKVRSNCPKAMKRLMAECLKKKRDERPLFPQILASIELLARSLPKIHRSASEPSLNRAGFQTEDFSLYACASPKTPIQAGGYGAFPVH

Compound	IC50 [1] [µM]	Ratio IC50 [2]	IC50 [3] [µM]
COc1cc(Nc2nc(-c3cccc(NC(C)=O)c3)cnc2NC(C)=O)cc(OC)c1OC	> 100		
COc1cc(Nc2cncc(Oc3ccncc3)n2)cc(OC)c1OC	16		
COc1cc(Nc2cncc(-c3cccnc3)n2)cc(OC)c1OC	22		
COc1cc(Nc2cncc(Oc3cccc(F)c3)n2)cc(OC)c1OC	56		
COc1cc(Nc2cncc(Oc3cccc4ccccc34)n2)cc(OC)c1OC	1.2		
COc1cc(Nc2cncc(Oc3ccc(NC(C)=O)cc3)n2)cc(OC)c1OC	5.5		
COc1cc(Nc2cncc(Oc3ccccc3)n2)cc(OC)c1OC	31		
COc1cc(Nc2cncc(Oc3ccc(C(C)=O)cc3)n2)cc(OC)c1OC	34		
COc1cc(Nc2cncc(-c3cccc(C#N)c3)n2)cc(OC)c1OC	9.8		
COc1cc(Nc2cncc(Nc3ccc(NC(C)=O)cc3)n2)cc(OC)c1OC	16		
COc1cc(Nc2cncc(-c3ccc(CO)cc3)n2)cc(OC)c1OC	26		
COc1cc(Nc2cncc(Oc3ccc(/C(C)=N/O)cc3)n2)cc(OC)c1OC	26		
COc1cc(Nc2cncc(-c3cccc(O)c3)n2)cc(OC)c1OC	4		
COc1cc(Nc2cncc(Oc3ccnc4ccccc34)n2)cc(OC)c1OC	1.5		
COc1cc(Nc2cncc(Oc3cccc4c(NC(C)=O)cccc34)n2)cc(OC)c1OC	0.41		
COc1cc(Nc2cncc(Oc3cccc4c3CC/C4=N\O)n2)cc(OC)c1OC	1.4		
COc1cc(Nc2cncc(Nc3ccc(O)cc3)n2)cc(OC)c1OC	4.9		
COc1cc(Nc2cncc(Oc3cccc4c3CCCC4=O)n2)cc(OC)c1OC	29		
CC(=O)Nc1ccc(Oc2cncc(Nc3cccc(-c4cnco4)c3)n2)c2ccccc12	0.31	5	1.52

Compound	IC50 [1] [µM]	Ratio IC50 [2]	IC50 [3] [µM]
COc1cc(Nc2cncc(Oc3cccc4ncccc34)n2)cc(OC)c1OC	10		
COc1cc(Nc2cncc(Oc3cccc(/C(C)=N/O)c3)n2)cc(OC)c1OC	11		
COc1cc(Nc2cncc(-c3ccncc3)n2)cc(OC)c1OC	2.9		
COc1cc(Nc2cncc(Oc3ccc4c(c3)OC(=O)CC4)n2)cc(OC)c1OC	44		
COc1cc(Nc2cncc(-c3cccc(NC(C)=O)c3)n2)cc(OC)c1OC	3.5		
COc1cc(Nc2cncc(Nc3ccccc3)n2)cc(OC)c1OC	16		
COc1cc(Nc2cncc(Oc3ccc4c(c3)CCCC4=O)n2)cc(OC)c1OC	76		
COc1cc(Nc2cncc(Oc3ccccc3-c3ccccc3)n2)cc(OC)c1OC	10		
COc1cc(Nc2cncc(-c3ccc(C=O)cc3)n2)cc(OC)c1OC	3		
COc1cc(Nc2cncc(Oc3cccc(NC(C)=O)c3)n2)cc(OC)c1OC	13		
COc1cc(Nc2cncc(Oc3ccc4ccccc4c3)n2)cc(OC)c1OC	> 100		
CC(=O)Nc1cccc2c(Oc3cncc(Nc4ccc5c(c4)C(=O)OC5)n3)cccc12	2.5		
COc1cc(Nc2cncc(Oc3ccccc3F)n2)cc(OC)c1OC	45		
COc1cc(Nc2cncc(Oc3cccc4cnccc34)n2)cc(OC)c1OC	3.8		
COc1cc(Nc2cncc(Oc3ccc(NC(C)=O)c4ccccc34)n2)cc(OC)c1OC	0.56	36	20.3
COc1cc(Nc2cncc(Nc3cccc(NC(C)=O)c3)n2)cc(OC)c1OC	14		
COc1cc(Nc2cncc(Nc3ccc(F)cc3)n2)cc(OC)c1OC	19		
COc1cc(Nc2cncc(-c3ccc(C(N)=O)cc3)n2)cc(OC)c1OC	1.12	34	38.2
COc1cc(Nc2cncc(Oc3ccc4c(c3)C(=O)CC4)n2)cc(OC)c1OC	22		

Compound	IC50 [1] [µM]	Ratio IC50 [2]	IC50 [3] [µM]
COc1cc(Nc2cncc(Oc3cccnc3)n2)cc(OC)c1OC	45		
COc1cc(Nc2cncc(Oc3cccc4c3CCCC4)n2)cc(OC)c1OC	18		
CCOC(=O)c1cccc(-c2cncc(Nc3cc(OC)c(OC)c(OC)c3)n2)c1	14		
COc1cc(Nc2cncc(Oc3cccc4[nH]ccc34)n2)cc(OC)c1OC	7.4		
COc1cc(Nc2cncc(-c3ccc(NC(=O)Nc4ccccc4)cc3)n2)cc(OC)c1OC	1.16	> 86	> 100
COc1cc(Nc2cncc(Sc3cccc4ccccc34)n2)cc(OC)c1OC	9.8		
COc1cc(Nc2cncc(Oc3cccc(Cl)c3)n2)cc(OC)c1OC	36		
COc1cc(Nc2cncc(Oc3ccc4c(c3)CCC/C4=N\O)n2)cc(OC)c1OC	92		
CC(=O)Nc1cccc2c(Oc3cncc(Nc4cccc(-c5cnco5)c4)n3)cccc12	0.65	11	6.96
COc1cc(Nc2cncc(Oc3ccc4c(c3)CCC4=O)n2)cc(OC)c1OC	70		
COc1cc(Nc2cncc(Oc3cccc(C(C)=O)c3)n2)cc(OC)c1OC	19		
COc1cc(Nc2cncc(Oc3ccc4ncccc4c3)n2)cc(OC)c1OC	29		
COc1cc(Nc2cncc(Oc3ccc4c(c3)/C(=N/O)CC4)n2)cc(OC)c1OC	86		
COc1cc(Nc2cncc(-c3ccc(O)cc3)n2)cc(OC)c1OC	18		
COc1cc(Nc2cncc(-c3cccc(NC(C)=O)c3)c2)cc(OC)c1OC	26		
COc1cc(Nc2cncc(Nc3ccncc3)n2)cc(OC)c1OC	4.7		
COc1cc(Nc2cncc(Nc3cccc(F)c3)n2)cc(OC)c1OC	12		
COc1cc(Nc2cncc(Oc3cccc4c3CCC4=O)n2)cc(OC)c1OC	18		
